Data taken from US20250129119A1, “PEPTIDE HAVING ANTI-INFLAMMATORY ACTIVITY AND USE THEREOF” (CAREGEN CO., LTD., priority 2021, published 2025).

Key:
Format in all cases: cell-based
[1] = system: COX2 and INFγ mRNA expression induced by LPS in splenocytes; experiment: RT-PCR of inflammatory gene mRNA in LPS-stimulated splenocytes; details: mouse splenocytes; peptide 5 μM and 50 μM; LPS 2 μg/mL; 3 hours; FIG. 1
Procedure: In order to confirm the effect of the peptides of the present invention synthesized in Synthesis Example 1 on the inflammatory response induced by LPS, the expression levels of mRNA of inflammatory cytokines COX2 and INFγ were measured by RT-PCR.
(§1) Specifically, 6-7 week old mice (C57BL/6, Young Bio Co., Ltd.) were sacrificed to obtain spleens, which were crushed using a cell strainer, and then centrifuged along with serum-free RPMI-1640 medium. The supernatant was discarded and red blood cells (RBCs) were removed twice using RBC lysis buffer. Then, after washing the resultant with serum-free RPMI-1640 medium, an appropriate amount of serum-free RPMI-1640 medium was added. The number of mouse splenocytes was measured, and the cells were inoculated into a 24-well plate at a density of 1×10^7 cells/well, and cultured overnight. Next day, the medium was replaced with serum-free medium and the cells were cultured for 4 hours, and then treated with the peptide of the present invention (5 μM and 50 μM) and LPS (2 μg/mL), which is an inflammation-inducing substance, as a stimulant, and cultured for 3 additional hours.
Next, cells were recovered after culture, and total RNA was extracted using an RNA extraction kit (Qiagen RNeasy kit), and after RNA quantification, cDNA was synthesized using a cDNA synthesis kit (Intron, Korea). […]

[2] = system: secretion of TNF-α, IFN-γ and IL-17 induced by LPS in splenocytes; experiment: ELISA of cytokine secretion in LPS-stimulated splenocytes; details: mouse splenocytes, peptide 5 μM and 50 μM, LPS 2 μg/mL, 24 hours
Procedure: In order to confirm the effect of the peptides of the present invention synthesized in Synthesis Example 1 on the inflammatory response induced by LPS, the secretion amounts of inflammatory cytokines TNF-α, IL-17, and INFγ were measured by ELISA.
as §1, with “centrifuged” for “centrifuged along”, “added thereto.” for “added.”, “24” for “3”
Next, the cell culture was recovered after cultivation, and the amounts of secretion of IL-17, IFN-γ, and TNF-α, which are secretion markers during Th17 differentiation, were measured using an ELISA kit (Quantikine ELISA Kit, R&D System, USA) specific to IL-17, IFN-γ, and TNF-α, and the absorbance was measured using Spectramax M2 (Molecular Devices).

[3] = system: secretion of TNF-α, IL-1β and INFγ induced by TNF-α in splenocytes; experiment: ELISA of cytokine secretion in TNF-α-stimulated splenocytes; details: mouse splenocytes, peptide 5 μM and 50 μM, TNF-α 20 nM, 24 hours
Procedure: In order to confirm the effect of the peptides of the present invention synthesized in Synthesis Example 1 on the inflammatory response induced by TNF-α, the secretion amounts of TNF-α, IL-1β, and INFγ, which are inflammatory cytokines, were measured by ELISA.
as §1, with “centrifuged” for “centrifuged along”, “added thereto.” for “added.”, “TNF-α (20 nM),” for “LPS (2 μg/mL),”, “24” for “3”
Next, the cell culture was recovered after cultivation, and the amounts of secretion of TNF-α, IL-1β, and INFγ, which are inflammatory cytokines, were measured using an ELISA kit (Quantikine ELISA Kit, R&D System, USA) specific to TNF-α, IL-1β, and INFγ, and the absorbance was measured using Spectramax M2 (Molecular Devices).

[4] = system: secretion of INFγ induced by LPS, TGF-β, and IL-23 in splenocytes; experiment: ELISA of INFγ secretion in splenocytes stimulated with LPS, TGF-β and IL-23; details: mouse splenocytes; peptide 5 μM and 50 μM; LPS 2 μg/mL, TGF-β 20 ng/mL, IL-23 20 ng/mL; 24 hours; FIG. 4
Procedure: In order to confirm the effect of the peptides of the present invention synthesized in Synthesis Example 1 on the inflammatory response induced by LPS, TGF-β, and IL-23, the secretion amount of INFγ, which is an inflammatory cytokine, was measured by ELISA.
Specifically, 6-7 week old mice (C57BL/6, Young Bio Co., Ltd.) were sacrificed to obtain spleens, which were crushed using a cell strainer, and then centrifuged with serum-free RPMI-1640 medium. The supernatant was discarded and red blood cells (RBCs) were removed twice using RBC lysis buffer. Then, after washing the resultant with serum-free RPMI-1640 medium, an appropriate amount of serum-free RPMI-1640 medium was added thereto. The number of mouse splenocytes was measured, and the cells were inoculated into a 24-well plate at a density of 1×10^7 cells/well, and cultured overnight. […]
Next, the cell culture was recovered after cultivation, and the amount of secretion of INFγ, which is an inflammatory cytokine, was measured using an ELISA kit (Quantikine ELISA Kit, R&D System, USA) specific to INFγ, and the absorbance was measured using Spectramax M2 (Molecular Devices).

[5] = system: secretion of IL-17 induced by TNF-α and IL-17A in splenocytes; experiment: ELISA of IL-17 secretion in splenocytes stimulated with TNF-α and IL-17A; details: mouse splenocytes; peptide 5 μM and 50 μM; TNF-α 20 nM and IL-17A 200 ng/mL; 24 hours; FIG. 5
Procedure: In order to confirm the effect of the peptides of the present invention synthesized in Synthesis Example 1 on the inflammatory response induced by TNF-α and IL-17A, the secretion amount of IL-17, which is an inflammatory cytokine, was measured by ELISA.
Specifically, 6-7 week old mice were sacrificed to obtain spleens, which were crushed using a cell strainer, and then centrifuged with serum-free RPMI-1640 medium. The supernatant was discarded and red blood cells (RBCs) were removed twice using RBC lysis buffer. Then, after washing the resultant with serum-free RPMI-1640 medium, an appropriate amount of serum-free RPMI-1640 medium was added thereto. The number of mouse splenocytes was measured, and the cells were inoculated into a 24-well plate at a density of 1×10^7 cells/well, and cultured overnight. […]
Next, the cell culture was recovered after cultivation, and the amount of secretion of IL-17, which is an inflammatory cytokine, was measured using an ELISA kit (Quantikine ELISA Kit, R&D System, USA) specific to […], and the absorbance was measured using Spectramax M2 (Molecular Devices).

[6] = system: TNF-α, COX2, IL-6 and IL-8 mRNA expression in human keratinocytes HaCaT; experiment: RT-PCR of inflammatory gene mRNA in HaCaT keratinocytes stimulated with TNF-α and hIL-17A; details: peptide 5 μM and 50 μM, TNF-α 10 nM and hIL-17A 200 ng/mL, one hour, FIG. 6
Procedure: In order to confirm the effect of the peptides of the present invention synthesized in Synthesis Example 1 on Th17-mediated inflammatory responses, the mRNA expression levels of TNF-α, COX2, IL-6, and IL-8 were measured by RT-PCR.
Specifically, the number of human keratinocytes HaCaT (CLS Cell Lines Service)) was measured, and the cells were inoculated into a 24-well plate at a density of 3×10^5 cells/well, and cultured overnight. Next day, the medium was replaced with serum-free medium and the cells were cultured for 4 hours, and then treated with the peptide of the present invention (5 μM and 50 μM) and TNF-α (10 nM) and hIL-17A (200 ng/mL), which are Th17 type inflammation-inducing cytokines, used as a stimulant, and cultured for one additional hour.
Next, cells were recovered after culture, and total RNA was extracted using an RNA extraction kit (Qiagen RNeasy kit), and after RNA quantification, cDNA was synthesized using a cDNA synthesis kit (Intron, Korea). A polymerase chain reaction (PCR) was performed by mixing a PCR premix (Intron, Korea), synthesized cDNA, and primers shown in [Table 3] below specific for each of the genes of TNF-α, COX2, IL-6, IL-8, and GAPDH. PCR products were electrophoresed on a 5% agarose gel and stained with ethidium bromide to confirm the mRNA expression levels of TNF-α, COX2, IL-6, and IL-8, which are genes associated with inflammation and autoimmune diseases.

[7] = system: iNOS and pJNK in human keratinocytes HaCaT; experiment: Western blot of iNOS and pJNK in HaCaT keratinocytes stimulated with TNF-α and hIL-17A; details: peptide 5 μM and 50 μM, TNF-α 10 nM and hIL-17A 200 ng/mL, 24 hours, FIG. 7
Procedure: In order to confirm the effect of the peptides of the present invention synthesized in Synthesis Example 1 on Th17-mediated inflammatory responses, the degree of phosphorylation of iNOS and pJNK, which are inflammation-inducing factors and signaling proteins, was measured by Western blot.
Specifically, the number of human keratinocytes HaCaT (CLS Cell Lines Service)) was measured, and the cells were inoculated into a 24-well plate at a density of […], and cultured overnight. Next day, the medium was replaced with serum-free medium and the cells were cultured for 4 hours, and then treated with the peptide of the present invention (5 μM and 50 μM) and TNF-α (10 nM) and hIL-17A (200 ng/mL), which are Th17 type inflammation-inducing cytokines, as a stimulant, and cultured for 24 additional hours.
After cultivation, the cells were recovered to prepare a cell lysate, and a western blot was performed using antibodies against iNOS and pJNK (Cell Signaling Technology, USA) to confirm the patterns of protein expression.

SVSVGMKPSPRP [peptide of the present invention]
mRNA expression of COX2 (RT-PCR) [1]: significantly reduce | mRNA expression of INFγ (RT-PCR) [1]: significantly reduce | secretion of TNF-α (ELISA) ([2]; FIG. 2A): significantly reduce | secretion of IFN-γ (ELISA) ([2]; FIG. 2B): significantly reduce | secretion of IL-17 (ELISA) ([2]; FIG. 2C): significantly reduce | secretion of TNF-α (ELISA) ([3]; FIG. 3A): significantly reduce | secretion of IL-1β (ELISA) ([3]; FIG. 3B): significantly reduce | secretion of INFγ (ELISA) ([3]; FIG. 3C): significantly reduce | secretion of INFγ (ELISA) [4]: significantly reduce | secretion of IL-17 (ELISA) [5]: significantly reduce | mRNA expression of COX2 (RT-PCR) [6]: significantly reduce | mRNA expression of IL-6 (RT-PCR) [6]: significantly reduce | mRNA expression of IL-8 (RT-PCR) [6]: significantly reduce | mRNA expression of TNF-α (RT-PCR) [6]: significantly reduce | iNOS protein expression (Western blot) [7]: reduce | phosphorylation of JNK (Western blot) [7]: reduce
